Test results as given in patent publication US20130273649A1, “Culture medium for pluripotent stem cells” (UNIVERSITY OF SOUTHERN CALIFORNIA, priority 2012, published 2013).

Columns and labels:
Format in all cases: cell-based
mouse EpiSCs = experiment: Mouse EpiSC self-renewal culture; conditions: for EpiSC self-renewal / maintenance of undifferentiated state: CD1 mouse EpiSCs, GMEM/10% FBS, no FGF2/activin unless named, CHIR 3 μM, PD0325901 1 μM, XAV939 2 μM, IWR-1 2.5 μM, IWP-2 2.5 μM, Pyrvinium 100 nM
Excerpt: We therefore reasoned that if CHIR induces EpiSC differentiation through stabilization of β-catenin, de-stabilization of β-catenin might promote EpiSC self-renewal. We tested this hypothesis by administering the tankyrase inhibitor XAV939 to mouse EpiSC cultures. XAV939-mediated inhibition of tankyrase stabilizes Axin, leading to the formation of the β-catenin destruction complex, composed of GSK3, Axin and adenomatous polyposis coli (APC) (Huang et al., 2009). […] EpiSCs cultured in CHIR/XAV could be routinely passaged by single-cell dissociation and replating onto gelatin-coated dishes, and could be cryo-preserved and recovered at high efficiency by standard techniques.
final concentrations: CHIR99021 (3 μM), PD0325901 (1 μM), XAV939 (Sigma, 2 μM), IWR-1 (Sigma, 2.5 μM), IWP-2 (Stemgent, 2.5 μM), Pyrvinium (Sigma, 100 nM), recombinant human FGF2 (PeproTech, 10 ng/ml), and recombinant human activin A (PeproTech, 10 ng/ml). CHIR99021 and PD0325901 were synthesized in the Division of Signal Transduction Therapy, University of Dundee, UK.
The basal medium for mouse EpiSC culture is the conventional mouse ESC medium, which consists of GMEM (Sigma) supplemented with 10% fetal bovine serum (FBS) (Hyclone), 2 mM L-glutamine (Invitrogen), 1 mM sodium pyruvate (Invitrogen), 1% nonessential amino acids (Invitrogen), and 0.1 mM (3-mercaptoethanol. Mouse EpiSCs were derived and maintained in the basal medium supplemented with FGF2/activin, CHIR/XAV, or CHIR/IWR-1. The basal medium for rat EpiSC culture is N2B27 (Tong et al., 2011), which was prepared by mixing 500 ml of DMEM/F12 (Invitrogen) with 500 ml of Neurobasal™ medium (Invitrogen), and adding 5 ml of N2 (Invitrogen), 10 ml of B27 (Invitrogen), 5 ml of Glutamax™ (Invitrogen), and 1 ml of 0.1 M β-mercaptoethanol (Sigma). The basal medium for human ESC culture consists of Knockout™ DMEM/F12 supplemented with 20% KSR (Invitrogen), 1% nonessential amino acids, 2 mM L-glutamine, and 0.1 mM (3-mercaptoethanol. Human ESCs were cultured in the basal medium supplemented with FGF2, CHIR/XAV, or CHIR/IWR-1.
Post-implantation epiblasts were isolated from mouse or rat embryos and dissociated into small clumps as previously described (Chenoweth and Tesar, 2010). Epiblast fragments were placed into 4-well plates pre-coated with 0.1% gelatin (for mouse epiblasts) or pre-seeded with γ-irradiated mouse embryonic fibroblasts (MEFs) (for rat epiblasts) and cultured in either the FGF2/activin or the CHIR/XAV conditions. Emerging EpiSCs were trypsinized and expanded every 2-3 days at a subculture ratio of 1:4. Animal experiments were performed according to the investigator's protocols approved by the University of Southern California Institutional Animal Care and Use Committee.

[1] = tested on: β-catenin/TCF-responsive TOPFlash reporter; experiment: TOPFlash reporter assay in H9 human ESCs; conditions: 24 h, added to CHIR
Method: (A) TOPFlash™ assay in H9 human ESCs subjected to the indicated treatments for 24 h. Data represent mean±s.d. of three biological replicates. (B) Representative phase contrast and alkaline phosphatase (AP) staining images of H9 human ESCs cultured in the indicated conditions for 3 passages. (C) Phase contrast images of H9 human ESCs cultured in CHIR/XAV or CHIR/IWR-1 for 11 passages. (D) Colony forming efficiency assay of H9 human ESCs cultured in FGF2 or CHIR/IWR-1 conditions. Data represent mean±s.d. of three biological replicates. Right panel: a representative image showing AP staining of colonies formed from H9 human ESCs cultured in either FGF2 or CHIR/IWR-1 condition. (E) Human ESCs cultured in CHIR/IWR-1 for 11 passages were immunostained with the indicated antibodies. (F) Embryoid bodies (EBs) were generated from H9 human ESCs cultured in CHIR/IWR-1 for 11 passages. The outgrowths of EBs were immunostained with the indicated antibodies. (G) H&E staining of teratomas generated from H9 ESCs cultured in CHIR/IWR-1 for 20 passages. (H) Western blot analysis of Axin1 and Axin2 expression in HES3 human ESCs treated with the indicated cytokines/inhibitors for 24 h. (I) Immunofluorescence images of H9 human ESCs (passage 5 in CHIR) overexpressing Flag-tagged Axin2. (J) Representative phase contrast and immunofluorescence images of HES2 human ESCs overexpressing ΔNβ-catenin-ERT2 at passage 5 in basal medium only. These cells were cultured in basal medium only for more than 10 passages and remained morphologically undifferentiated. (K) Phase contrast images of HES2 human ESCs overexpressing ΔNβ-catenin (left panel, passage 2 in basal medium/FGF2) or ΔNβ-catenin/A295W/I296W mutant (right panel, passage 5 in basal medium only). Scale bars, 50 μm (B, C, E-G, and I-K). (L) Model of mouse EpiSC and human ESC self-renewal mediated by β-catenin. In the absence of Wnt or GSK3 inhibitor, a β-catenin destruction complex, containing Axin1, GSK3, and APC is formed, leading to the degradation of β-catenin and differentiation (left). In the presence of Wnt or GSK3 inhibitor, β-catenin is stabilized and can initiate cellular responses related to both self-renewal and differentiation. Stabilized β-catenin induces differentiation when it translocates into the nucleus and binds TCFs to activate downstream targets (middle). Addition of XAV or IWR-1 stabilizes Axin2. […]
(§1) For quantifying relative Oct3/4 enhancer activities, pGL3-Oct4 DE and pGL3-Oct4 PE plasmids (gifts from Hans Schöler's lab) were co-transfected with the Renilla vector, using the Amaxa™ Transfection Kit (Lonza). […] For quantifying relative β-catenin/Tcf transcriptional activity, pGL2-SuperTOP™ plasmid (gift from Randall Moon) was co-transfected with the Renilla vector and assayed accordingly.

[2] = tested on: β-catenin/TCF-responsive TOPFlash reporter; experiment: TOPFlash reporter assay in mouse EpiSCs; conditions: CD1 mouse EpiSCs, 12 hours, added to CHIR
Method: (§2) (A) TOPFlash™ assay in CD1 mouse EpiSCs treated with the indicated inhibitors for 12 hours. Data represent mean±s.d. of three biological replicates. (B) Representative phase contrast images of CD1 mouse EpiSCs cultured in the indicated conditions for 7 days. (C) Western blot analysis of CD1 mouse EpiSCs treated with the indicated inhibitors for 12 h. (D) qRT-PCR analysis of Axin1 and Axin2 mRNA levels in CD1 mouse EpiSCs stably transfected with Axin1 shRNA or Axin2 shRNA. Data represent mean±s.d. of three biological replicates. (E) Colony assay on CD1 mouse EpiSCs stably transfected with scramble, Axin1, or Axin2 shRNAs. Cells were plated onto a 6-well plate at a density of 5,000 cells/well and cultured in CHIR/IWR-1. Colonies were counted 7 days after plating. Data represent the total combined numbers of colonies from two independent experiments in which each shRNA-transfected group was cultured in one well of a 6-well plate. (F) Representative phase contrast images of CD 1 mouse EpiSCs stably transfected with the indicated shRNAs and cultured in CHIR/IWR-1 for 7 days. (G) Western blot analysis of CD1 mouse EpiSCs overexpressing Flag-tagged Axin1 or Axin2. (H) Representative phase contrast images of CD1 mouse EpiSCs overexpressing Axin1 or Axin2 and cultured in CHIR for 7 days. Axin2-overexpressing EpiSCs could be continually passaged in CHIR alone. Scale bars, 50 μm (B, F and H)
Next, we investigated the mechanism by which CHIR/XAV promotes EpiSC self-renewal. By inhibiting GSK3 phosphorylation of β-catenin, CHIR stabilizes β-catenin, which then trans-locates to the nucleus and forms complexes with DNA-binding proteins, including TCFs, to activate transcription (Logan and Nusse, 2004). […]
as §1

Axin1 [3] = experiment: Western blot of Axin1 in mouse EpiSCs; conditions: CD1 mouse EpiSCs treated 12 h
Method: as §2
Next, we investigated the mechanism by which CHIR/XAV promotes EpiSC self-renewal. By inhibiting GSK3 phosphorylation of β-catenin, CHIR stabilizes β-catenin, which then trans-locates to the nucleus and forms complexes with DNA-binding proteins, including TCFs, to activate transcription (Logan and Nusse, 2004). […] Axin has two isoforms, Axin1 and Axin2. […] The expression level of Axin2, but not Axin1, was also elevated by CHIR treatment (FIG. 4C), an outcome consistent with previous findings that Axin2 is a direct downstream target of Wnt/β-catenin signaling (Jho et al., 2002). […]

Axin2 [4] = experiment: Western blot of Axin2 in mouse EpiSCs; conditions: CD1 mouse EpiSCs treated 12 h
Axin1 [5] = experiment: Western blot of Axin1 in human ESCs; conditions: human ESCs treated 24 h
Method: (A) TOPFlash™ assay in H9 human ESCs subjected to the indicated treatments for 24 h. Data represent mean±s.d. of three biological replicates. (B) Representative phase contrast and alkaline phosphatase (AP) staining images of H9 human ESCs cultured in the indicated conditions for 3 passages. (C) Phase contrast images of H9 human ESCs cultured in CHIR/XAV or CHIR/IWR-1 for 11 passages. (D) Colony forming efficiency assay of H9 human ESCs cultured in FGF2 or CHIR/IWR-1 conditions. Data represent mean±s.d. of three biological replicates. Right panel: a representative image showing AP staining of colonies formed from H9 human ESCs cultured in either FGF2 or CHIR/IWR-1 condition. (E) Human ESCs cultured in CHIR/IWR-1 for 11 passages were immunostained with the indicated antibodies. (F) Embryoid bodies (EBs) were generated from H9 human ESCs cultured in CHIR/IWR-1 for 11 passages. The outgrowths of EBs were immunostained with the indicated antibodies. (G) H&E staining of teratomas generated from H9 ESCs cultured in CHIR/IWR-1 for 20 passages. (H) Western blot analysis of Axin1 and Axin2 expression in HES3 human ESCs treated with the indicated cytokines/inhibitors for 24 h. (I) Immunofluorescence images of H9 human ESCs (passage 5 in CHIR) overexpressing Flag-tagged Axin2. […]

Axin2 [6] = experiment: Western blot of Axin2 in human ESCs; conditions: human ESCs treated 24 h
[7] = tested on: β-catenin-TCF transcriptional activity; experiment: β-catenin-TCF transcriptional activity induced by CHIR; conditions: data not shown
Excerpt: The role of β-catenin in human ESC self-renewal has been controversial. […] Our finding that activation of β-catenin can promote human ESC self-renewal or differentiation, and that the respective outcome is dictated by whether β-catenin translocates into the nucleus, provides a rational explanation for earlier, seemingly paradoxical results. […] Some of the contradicted results on the role of β-catenin in human ESC self-renewal, therefore, might be attributable to variations in the subcellular localization of β-catenin under different culture conditions.

4-hydroxytamoxifen [4-OHT] was tested, and the “differentiation of ΔNβ-catenin-ERT2-overexpressing EpiSCs” value (mouse EpiSCs; 1 μM 4-OHT, even in the presence of IWR-1) was “resulted in rapid differentiation”.
`Cc1ccc2nc(NC(=O)CSc3nc4c(c(=O)n3-c3ccccc3)SCC4)sc2c1` [IWP-2] was tested, and the “EpiSC self-renewal / maintenance of undifferentiated state” value (mouse EpiSCs) was “unable to support EpiSC self-renewal” and the “effect on TOPFlash activity induced by CHIR” value [1] was “only partially suppressed”.
`O=C(Nc1cccc2cccnc12)c1ccc(N2C(=O)[C@@H]3[C@H](C2=O)[C@@H]2C=C[C@H]3C2)cc1` [IWR-1, 4-(1,3,3a,4,7,7a-Hexahydro-1,3-dioxo-4,7-methano-2H-isoindol-2-yl)-N-8-quinolinyl-Benzamide] was tested, and the “effect on TOPFlash activity induced by CHIR” value [2] was “blocked TOPFlash™ reporter activity induced by CHIR”, the “amount of Axin1 protein” value (Axin1 [3]) was “significantly increased” and the “amount of Axin2 protein” value (Axin2 [4]) was “significantly increased”. For the same compound, the “effect on TOPFlash activity induced by CHIR” value [1] was “abolished this TOPFlash™ activity”, the “amount of Axin1 protein” value (Axin1 [5]) was “significantly increased” and the “amount of Axin2 protein” value (Axin2 [6]) was “significantly increased”.
`Cc1cc(/C=C/c2ccc3cc(N(C)C)ccc3[n+]2C)c(C)n1-c1ccccc1` [Pyrvinium] was tested, and the “EpiSC self-renewal / maintenance of undifferentiated state” value (mouse EpiSCs) was “unable to support EpiSC self-renewal”.
In the case of “bovine serum albumin: bovine serum albumin”, the “effect on β-catenin-TCF transcriptional activity induced by CHIR” value [7] is reported as “partially block”.
